Assays:
Assay type in all cases: in vivo
Spodoptera frugiperda = Spodoptera frugiperda spray test; details: in Zea mays, 168 h, read-out: activity (mortality)
Method in brief: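 Maize leaf sections were sprayed with compound formulated in acetone/DMF and diluted in water containing 1000 ppm emulsifier. Dried leaves were infested with fall armyworm larvae, and percent mortality was scored after 7 days.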

[1] = system: Anopheles funestus strain FUMOZ-R; assay: Anopheles funestus test (ANPHFU surface treatment & contact assay); details: exposure 30 minutes, 24 hours after contact, read-out: efficacy (mortality)
Experimental: Anopheles funestus Test (ANPHFU Surface Treatment & Contact Assay) Solvent: Aceton+2000 ppm rapeseed oil methyl ester (RME)
In order to produce a sufficient, active ingredient containing solution it is necessary to solve the test compound in the solvent-mix (acetone at 2 mg/ml/RME 2000 ppm). This solution is pipetted onto a glazed tile and after evaporation of the acetone, adult mosquitoes of the species Anopheles funestus strain FUMOZ-R (Hunt et al., Med. Vet. Entomol. 2005 September; 19(3): 271-275) are placed onto the dried surface. The exposure time is 30 minutes. Mortality in percent (%) is determined 24 hours after contact of the insects to the treated surface. 100% mortality means that all tested insects are dead, whereas 0% means that no insect died.

Diabrotica balteata = Diabrotica balteata spray test; details: 168 h, wheat seeds, larvae, after 7 days, read-out: activity (efficacy: 100% means all seedlings have grown up like in the untreated, uninfected control); for pest or weed control at 32 µg/disc, 100 g/ha: application rate 100 g/ha (=32 μg/well); for pest or weed control at 160 µg/disc, 500 g/ha: application rate 500 g/ha (=160 μg/well)
Method in brief: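 Wheat seedlings, germinated 1 day on agar, were sprayed with compound in acetone/DMF diluted in water containing emulsifier, then infested with 10-20 Diabrotica balteata larvae. After 7 days efficacy in % was scored: 100% means seedlings grew like the untreated, uninfected control; 0% means none grew.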

Ctenocephalides felis [2] = assay: Ctenocephalides felis oral test (CTECFE Oral); details: 48 h, read-out: activity (mortality)
Method in brief: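 About 20 unfed adult cat fleas fed through parafilm on cattle blood containing compound (DMSO concentrate diluted in blood to the desired concentration). Blood held at 37 °C, fleas at room temperature. Mortality (%) scored after 2 days.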

Rhipicephalus microplus [3] = assay: Rhipicephalus (Boophilus) microplus injection test (BOOPMI Inj); details: 168 h, injection into adult engorged female ticks, egg deposition after 7 days, read-out: activity (efficacy: 100% means all eggs are infertile); for pest or weed control at 0.004 mg: application rate 4 μg/tick; for pest or weed control at 0.02 mg: application rate 20 μg/tick
Method in brief: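 Five engorged adult female R. microplus ticks injected into the abdomen with 1 μL of compound diluted in DMSO, then kept in a climate chamber. Fertile egg deposition checked after 7 days; eggs without visible fertility held until hatching at about 42 days. Efficacy: 100% = all eggs infertile, 0% = all fertile.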

Rhipicephalus microplus [4] = assay: Rhipicephalus (Boophilus) microplus in-vitro contact test, larval cattle tick, strain Parkhurst (BOOPMI Cont); details: application rate 5 μg/cm^2 (=500 g/ha), tick larvae, after 48 hours, read-out: activity (efficacy: 100% means all larvae are dead or moribund)
Method in brief: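 Acetone solutions dried onto glass tube walls (900 ppm giving 5 μg/cm^2); 20-50 pyrethroid-resistant Parkhurst larvae added per tube and held 48 h at 27° C., 85% relative humidity. Efficacy scored by negative geotaxis as % dead or moribund larvae.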

Rhipicephalus sanguineus = Rhipicephalus sanguineus in-vitro contact test, adult brown dog ticks (RHIPSA Cont); details: 48 h, after 48 hours, read-out: activity (efficacy: 100% means all ticks are dead or moribund); for pest or weed control at 1 µg/cm2, 100 g/ha: application rate 1 μg/cm^2 (=100 g/ha); for pest or weed control at 5 µg/cm2, 500 g/ha: application rate 5 μg/cm^2 (=500 g/ha)
Method in brief: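 Compound in acetone (9 mg/mL stock, diluted to test concentration) is coated onto inner walls of glass tubes by rotation for 2 h at 30 rpm. Efficacy is read after 48 h: ticks are tapped down and held on a 45-50° C plate for at most 5 min, and immotile or uncoordinated ones that fail to climb away count as dead or moribund.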

Myzus persicae [5] = assay: Myzus persicae spray test; details: in Brassica rapa, foliar, 120 h; for mortality at 100 g/ha: read-out: activity (mortality), application rate 100 g/ha, spray, Chinese cabbage leaf disks, after 5 days
Experimental: Myzus persicae—Spray Test Solvent: 78.0 parts by weight acetone • 1.5 parts by weight dimethylformamide Emulsifier: alkylarylpolyglycol ether To produce a suitable preparation of active compound, 1 part by weight of active compound is mixed with the stated amount of solvents and is diluted with water, containing an emulsifier concentration of 1000 ppm, to the desired concentration. Further test concentrations are prepared by dilution with emulsifier containing water.
Chinese cabbage (Brassica pekinensis) leaf disks infected with all instars of the green peach aphid (Myzus persicae), are sprayed with a preparation of the active ingredient of the desired concentration.
After 5 days mortality in % is determined. 100% means all aphids have been killed and 0% means none of the aphids have been killed.

Ctenocephalides felis [6] = assay: Ctenocephalides felis in-vitro contact test, adult cat flea (CTECFE Cont); details: application rate 5 μg/cm^2 (=500 g/ha), adult cat fleas, after 48 hours, read-out: activity (efficacy: 100% means all fleas are dead or moribund)
Method in brief: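 Acetone solutions coated on glass tube inner walls (900 ppm giving 5 μg/cm^2), then 5-10 adult fleas added and held 48 h at room temperature. Fleas unable to escape a 45-50° C. heating plate within 5 min scored dead or moribund; efficacy = % dead/moribund.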

Nezara viridula = Nezara viridula spray test; details: in Hordeum vulgare, 96 h, barley plants, larvae, after 4 days; for mortality at 100 g/ha: application rate 100 g/ha
Method in brief: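 Barley plants infested with N. viridula larvae were sprayed with compound in acetone/DMF diluted with water containing 1000 ppm alkylarylpolyglycol ether emulsifier. Mortality (%) was scored after 4 days; 100% means all bugs killed, 0% none.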

Myzus persicae [7] = assay: Myzus persicae oral test; details: 120 h, read-out: activity (mortality)
Method in brief: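 Percent mortality was recorded at day 5, where 0% means no aphids killed. Compound prepared from an acetone concentrate diluted in water and combined with IPL41 medium containing sugar was offered to mixed-stage green peach aphids, which sucked it through a parafilm seal.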

| SMILES | mortality at 100 g/ha (Spodoptera frugiperda) | mortality at 500 g/ha (Spodoptera frugiperda) | mortality at 4 mg/m2 ([1]; surface concentration 4 mg/m^2, glazed tile) | mortality at 20 mg/m2 ([1]; surface concentration 20 mg/m^2, glazed tile) | pest or weed control at 32 µg/disc, 100 g/ha (Diabrotica balteata) | pest or weed control at 160 µg/disc, 500 g/ha (Diabrotica balteata) | mortality at 100 ppm (Ctenocephalides felis [2]) | pest or weed control at 0.004 mg (Rhipicephalus microplus [3]) | pest or weed control at 0.02 mg (Rhipicephalus microplus [3]) | pest or weed control at 5 µg/cm2 (Rhipicephalus microplus [4]) | pest or weed control at 1 µg/cm2, 100 g/ha (Rhipicephalus sanguineus) | pest or weed control at 5 µg/cm2, 500 g/ha (Rhipicephalus sanguineus) | mortality at 100 g/ha (Myzus persicae [5]) | mortality at 500 g/ha (Myzus persicae [5]; read-out: activity (mortality), application rate 500 g/ha, spray, Chinese cabbage leaf disks, after 5 days) | pest or weed control at 5 µg/cm2 (Ctenocephalides felis [6]) | mortality at 500 g/ha (Nezara viridula; application rate 500 g/ha) | mortality at 4 ppm (Myzus persicae [7]) | mortality at 100 g/ha (Nezara viridula) | mortality at 0.8 ppm (Myzus persicae [7]) |
| --- | --- | --- | --- | --- | --- | --- | --- | --- | --- | --- | --- | --- | --- | --- | --- | --- | --- | --- | --- |
| C[C@H](NC(=O)c1ccc(Cl)c(C(F)(F)F)c1)c1ncnn1-c1ccc(C#N)cn1 [II-10] | 100% | 100% | 80 to 100% | 80 to 100% | 100% | 100% | 100% | 100% | 100% | 100% | 80% | 100% | – | – | – | – | – | – | – |
| CC(C)CN(C)C(=O)c1ccc(-n2ncnc2[C@H](C)NC(=O)c2cc(Cl)cc(C(F)(F)F)c2)nc1 [II-71] | – | 100% | – | – | 100% | 100% | – | 100% | 100% | 100% | – | 100% | 90% | 90% | 100% | 100% | 90% | – | – |
| Cc1nc([C@H](C)NC(=O)c2cc(C(F)(F)F)cc(C(F)(F)F)c2)n(-c2ccc(C(=O)N(C)CC3CC3)cn2)n1 [II-91] | 100% | – | – | – | 100% | – | 100% | 100% | – | 100% | 100% | 100% | 100% | – | 100% | – | 100% | 100% | 100% |
| Cc1nc([C@H](C)NC(=O)c2cc(C(F)(F)F)cc(C(F)(F)F)c2)n(-c2ccc(C(=O)N(C)CC(F)(F)F)cn2)n1 [II-93] | 100% | – | – | – | 100% | – | 90% | 100% | – | 100% | 100% | 100% | 90% | – | 90% | – | 100% | 100% | – |
| Cc1nc([C@H](C)NC(=O)c2cc(C(F)(F)F)cc(C(F)(F)F)c2)n(-c2ccc(C(=O)N(C)CC(C)C)cn2)n1 [II-94] | – | – | – | – | 100% | – | 90% | 100% | – | 100% | 100% | 100% | 90% | – | 100% | – | 100% | 100% | – |
| Cc1nc([C@H](C)NC(=O)c2cc(F)cc(C#N)c2)n(-c2ccc(C#N)cn2)n1 [II-105] | 100% | – | – | – | 100% | – | 100% | 100% | – | 100% | 100% | 100% | 90% | – | 100% | – | 100% | 100% | – |
| Cc1nc([C@H](C)NC(=O)c2cc(OC(F)F)cc(C(F)F)c2)n(-c2ccc(C#N)cn2)n1 [II-113] | 100% | – | – | – | 100% | – | 100% | 100% | – | 100% | 80% | 100% | 90% | – | 100% | – | 100% | 100% | 100% |
| Cc1nc([C@H](C)NC(=O)c2cc(OC(F)F)cc(OC(F)F)c2)n(-c2ccc(C#N)cn2)n1 [II-115] | 100% | – | – | – | 100% | – | – | – | – | 100% | – | 100% | 90% | – | 90% | – | 100% | 100% | 100% |

Reference: patent publication US20220274947A1, “NOVEL HETEROARYL-TRIAZOLE COMPOUNDS AS PESTICIDES” (Bayer Aktiengesellschaft, priority 2019, published 2022)
